According to BigSolDB 2.1:

Nc1ccc(Cc2ccc(N)cc2)cc1
solubility (mole fraction)
Conditions | 293.15 K | 298.15 K | 303.15 K | 308.15 K | 313.15 K | 318.15 K | 323.15 K | 328.15 K | 333.15 K
in benzene | 0.0207 | 0.0299 | 0.039 | 0.0499 | 0.066 | 0.0865 | 0.114 | – | –
in chloroform | 0.123 | 0.142 | 0.165 | 0.197 | 0.23 | 0.269 | 0.306 | – | –
in ethanol | 0.0335 | 0.0461 | 0.0637 | 0.0842 | 0.11 | 0.15 | 0.198 | 0.267 | –
in isopropanol | 0.011 | 0.0136 | 0.0178 | 0.0236 | 0.0312 | 0.0411 | 0.0536 | 0.0696 | 0.0898
in methanol | 0.127 | 0.157 | 0.187 | 0.219 | 0.259 | 0.3 | 0.347 | 0.403 | –
in n-butanol | 0.0187 | 0.0231 | 0.0296 | 0.0371 | 0.0476 | 0.0582 | 0.0713 | 0.0885 | 0.108
in toluene | 0.0156 | 0.0195 | 0.0244 | 0.03 | 0.038 | 0.0487 | 0.0599 | 0.075 | 0.0932
